# Tested on: HIV-1 (NL4-3 strain)
# Experiment: microbe, parasite or virus in culture
# Format: cell-based
# Settings: Human immunodeficiency virus 1, NL43, 0% normal human serum (NHS); MT4-GFP cells infected with HIV-1 NL4-3; IP or IC50 from 4-parameter dose response curve; read-out: WILD TYPE CELL ASSAY Viking IP (0% NHS)
row,Structure (SMILES),IC50
1,C[C@]12CCCO[C@@H]1Cn1cc(C(=O)NCc3ccc(F)cc3F)c(=O)c(O)c1C2=O (racemic) [Compound 9],2.6 nM
2,CC1(O)CCn2cc(C(=O)NCc3ccc(F)cc3F)c(=O)c(O)c2C1=O (racemic) [Compound 53],64 nM
3,"C[C@@]12CCCO[C@@H]1Cn1cc(C(=O)NCc3c(F)cc(F)cc3F)c(=O)c(O)c1C2=O (single isomer, unassigned) [Compound 14]",0.7 nM
4,"C[C@@]12CCCO[C@@H]1Cn1cc(C(=O)NCc3cccc(Cl)c3F)c(=O)c(O)c1C2=O (single isomer, unassigned) [Compound 15]",0.5 nM
5,"C[C@@]12CCCO[C@@H]1Cn1cc(C(=O)NCc3ccc(F)c(Cl)c3)c(=O)c(O)c1C2=O (single isomer, unassigned) [Compound 16]",4.1 nM
6,"C[C@@]12CCCO[C@@H]1Cn1cc(C(=O)NCc3ccc(F)c(F)c3F)c(=O)c(O)c1C2=O (single isomer, unassigned) [Compound 17]",2.9 nM
7,"C[C@@]12CCCO[C@@H]1Cn1cc(C(=O)NCc3ccc(F)cc3)c(=O)c(O)c1C2=O (single isomer, unassigned) [Compound 18]",8.7 nM
8,"C[C@]12CCCO[C@H]1Cn1cc(C(=O)NCc3ccc(F)cc3)c(=O)c(O)c1C2=O (single isomer, unassigned) [Compound 19]",4.6 nM
9,"C[C@]12CCCO[C@H]1Cn1cc(C(=O)NCc3ccc(F)c(F)c3F)c(=O)c(O)c1C2=O (single isomer, unassigned) [Compound 20]",3.5 nM
10,"C[C@]12CCCO[C@H]1Cn1cc(C(=O)NCc3ccccc3F)c(=O)c(O)c1C2=O (single isomer, unassigned) [Compound 21]",2.4 nM
11,"C[C@]12CCCO[C@H]1Cn1cc(C(=O)NCc3c(F)cccc3F)c(=O)c(O)c1C2=O (single isomer, unassigned) [Compound 22]",2.7 nM
12,"C[C@]12CCCO[C@H]1Cn1cc(C(=O)NCc3c(F)cc(F)cc3F)c(=O)c(O)c1C2=O (single isomer, unassigned) [Compound 23]",1.5 nM
13,"Cc1cc(CNC(=O)c2cn3c(c(O)c2=O)C(=O)[C@@]2(C)CCCO[C@H]2C3)ccc1F (single isomer, unassigned) [Compound 24]",4.3 nM
14,"C[C@]12CCCO[C@H]1Cn1cc(C(=O)NCc3ccc(F)c(Br)c3)c(=O)c(O)c1C2=O (single isomer, unassigned) [Compound 25]",4.2 nM
15,"C[C@]12CCCO[C@H]1Cn1cc(C(=O)NCc3cccc(Cl)c3F)c(=O)c(O)c1C2=O (single isomer, unassigned) [Compound 26]",1.1 nM
16,"Cc1c(F)ccc(CNC(=O)c2cn3c(c(O)c2=O)C(=O)[C@@]2(C)CCCO[C@H]2C3)c1F (single isomer, unassigned) [Compound 27]",2 nM
17,"C[C@]12CCCO[C@H]1Cn1cc(C(=O)NCc3cc(F)c(F)c(F)c3)c(=O)c(O)c1C2=O (single isomer, unassigned) [Compound 28]",4.4 nM
18,"C[C@]12CCCO[C@H]1Cn1cc(C(=O)NCc3ccc4c(c3)OCO4)c(=O)c(O)c1C2=O (single isomer, unassigned) [Compound 29]",17 nM
19,"C[C@]12CCCO[C@H]1Cn1cc(C(=O)NCc3ccc(F)c(Cl)c3)c(=O)c(O)c1C2=O (single isomer, unassigned) [Compound 30]",2.8 nM
20,"COc1ncc(CNC(=O)c2cn3c(c(O)c2=O)C(=O)[C@@]2(C)CCCO[C@H]2C3)cc1Cl (single isomer, unassigned) [Compound 32]",8.2 nM

# Same assay, conditions: Human immunodeficiency virus 1, NL43, 100% normal human serum (NHS); MT4-GFP cells infected with HIV-1 NL4-3; IP or IC50 from 4-parameter dose response curve; read-out: WILD TYPE CELL ASSAY Viking IP (100% NHS)
row,Structure (SMILES),IC50
1,C[C@]12CCCO[C@@H]1Cn1cc(C(=O)NCc3ccc(F)cc3F)c(=O)c(O)c1C2=O (racemic) [Compound 9],235 nM
2,CC1(O)CCn2cc(C(=O)NCc3ccc(F)cc3F)c(=O)c(O)c2C1=O (racemic) [Compound 53],> 8400 nM
3,"C[C@@]12CCCO[C@@H]1Cn1cc(C(=O)NCc3c(F)cc(F)cc3F)c(=O)c(O)c1C2=O (single isomer, unassigned) [Compound 14]",26 nM
4,"C[C@@]12CCCO[C@@H]1Cn1cc(C(=O)NCc3cccc(Cl)c3F)c(=O)c(O)c1C2=O (single isomer, unassigned) [Compound 15]",73 nM
5,"C[C@@]12CCCO[C@@H]1Cn1cc(C(=O)NCc3ccc(F)c(Cl)c3)c(=O)c(O)c1C2=O (single isomer, unassigned) [Compound 16]",257 nM
6,"C[C@@]12CCCO[C@@H]1Cn1cc(C(=O)NCc3ccc(F)c(F)c3F)c(=O)c(O)c1C2=O (single isomer, unassigned) [Compound 17]",117 nM
7,"C[C@@]12CCCO[C@@H]1Cn1cc(C(=O)NCc3ccc(F)cc3)c(=O)c(O)c1C2=O (single isomer, unassigned) [Compound 18]",315 nM
8,"C[C@]12CCCO[C@H]1Cn1cc(C(=O)NCc3ccc(F)cc3)c(=O)c(O)c1C2=O (single isomer, unassigned) [Compound 19]",709 nM
9,"C[C@]12CCCO[C@H]1Cn1cc(C(=O)NCc3ccc(F)c(F)c3F)c(=O)c(O)c1C2=O (single isomer, unassigned) [Compound 20]",839 nM
10,"C[C@]12CCCO[C@H]1Cn1cc(C(=O)NCc3ccccc3F)c(=O)c(O)c1C2=O (single isomer, unassigned) [Compound 21]",385 nM
11,"C[C@]12CCCO[C@H]1Cn1cc(C(=O)NCc3c(F)cccc3F)c(=O)c(O)c1C2=O (single isomer, unassigned) [Compound 22]",251 nM
12,"C[C@]12CCCO[C@H]1Cn1cc(C(=O)NCc3c(F)cc(F)cc3F)c(=O)c(O)c1C2=O (single isomer, unassigned) [Compound 23]",1260 nM
13,"Cc1cc(CNC(=O)c2cn3c(c(O)c2=O)C(=O)[C@@]2(C)CCCO[C@H]2C3)ccc1F (single isomer, unassigned) [Compound 24]",> 8400 nM
14,"C[C@]12CCCO[C@H]1Cn1cc(C(=O)NCc3ccc(F)c(Br)c3)c(=O)c(O)c1C2=O (single isomer, unassigned) [Compound 25]",> 8400 nM
15,"C[C@]12CCCO[C@H]1Cn1cc(C(=O)NCc3cccc(Cl)c3F)c(=O)c(O)c1C2=O (single isomer, unassigned) [Compound 26]",2550 nM
16,"Cc1c(F)ccc(CNC(=O)c2cn3c(c(O)c2=O)C(=O)[C@@]2(C)CCCO[C@H]2C3)c1F (single isomer, unassigned) [Compound 27]",> 8400 nM
17,"C[C@]12CCCO[C@H]1Cn1cc(C(=O)NCc3cc(F)c(F)c(F)c3)c(=O)c(O)c1C2=O (single isomer, unassigned) [Compound 28]",> 8400 nM
18,"C[C@]12CCCO[C@H]1Cn1cc(C(=O)NCc3ccc4c(c3)OCO4)c(=O)c(O)c1C2=O (single isomer, unassigned) [Compound 29]",> 8400 nM
19,"C[C@]12CCCO[C@H]1Cn1cc(C(=O)NCc3ccc(F)c(Cl)c3)c(=O)c(O)c1C2=O (single isomer, unassigned) [Compound 30]",> 8400 nM
20,"COc1ncc(CNC(=O)c2cn3c(c(O)c2=O)C(=O)[C@@]2(C)CCCO[C@H]2C3)cc1Cl (single isomer, unassigned) [Compound 32]",> 8400 nM
